Patent US7091182B2, “Method for assisting in differential diagnosis and treatment of autistic syndromes” (Repligen Corporation, priority 1997, dated 2006)
Entries after “also recorded” stand apart in the source; their conditions may differ.

Assays:
[1] = test system: children without behavioral abnormalities; adults; experiment: Secretin stimulatory response (pancreatic juice output) in non-autistic children and adults; format: in vivo, human
Experimental: The time required to collect basal duodenal fluid samples (1–2 ml) prior to secretin administration was 2–5 minutes, which was similar to that of non-autistic controls. […] Published adult responses using duodenal intubation and extended periods of specimen collection vary between 1.5 and 4.9 ml/min^56,57. Six out of 7 autistic patients who had chronic loose stools had pancreatico-biliary secretion rates above 5 ml/min (FIG. 4). […] The highest rate of secretion was 10 ml/min in one child.

[2] = test system: rats; conditions: ICV; cited from earlier work
[3] = test system: ovariectomized, estrogen-primed rats; conditions: cited from earlier work
[4] = test system: children with autistic behavior; experiment: Behavioral evaluation after secretin administration; format: in vivo, human
Text: Prior to the secretion administration, each child underwent developmental/psychological evaluation. […] In addition, most underwent a structured evaluation including assessment of intelligence, language ability, adaptive function [Vineland Adaptive Behavior Scales]^53 and behavioral rating scales [Child Behavior Checklist]^54. A more specific measure directly related to autism, the Childhood Autism Rating Scale [CARS]^55, was also used.
The most recent 8 cases had developmental/psychological evaluations at the University of Maryland or at the Kennedy Krieger Institute prior to the secretin administration.
The number and type of evaluation techniques that were employed increased across subjects as did the degree of sophistication of the professional staff involved in the design and conduct of the evaluation approaches. Specifically, data on the first seven subjects consisted of brief clinical observations, parental report, analysis of videotapes, and reports of evaluations by professionals who had conducted routine assessments not specifically dictated by our research protocol. Whereas, data on the second eight subjects studied consisted of the same methods described above, as well as with the addition of direct observation of behavior employing a standard functional analysis of structured videotape samples (analyzed in random order by blind raters); standard assessments including Communication and Symbolic Behavior Scales (CSBS), Pre-School Language Scales—3 (PSLS), Bayley Scales of Infant Development: Second Edition, Vineland Adaptive Behavior Scales, Childhood Autism Rating Scale (CARS), and Behavior Observation System (BOS). Further, the evaluation team for the least eight subjects involved professionals from the areas of neuropsychology, behavioral psychology and developmental pediatrics from both the University of Maryland School of Medicine and the Kennedy Krieger Institute/Johns Hopkins University School of Medicine.

[5] = test system: children with autistic behavior; experiment: Stool consistency / gastrointestinal symptoms after endoscopy and secretin injection; format: in vivo, human
Text: The specific procedures were as follows.

[6] = test system: children with autistic behavior; experiment: Pancreatic stimulation with secretin during upper gastrointestinal endoscopy, collection of pancreatico-biliary fluid; format: in vivo, human
Experimental: After fasting from midnight, upper gastrointestinal endoscopies were carried out the next morning under general anesthesia. All gastric juice was aspirated before passing the endoscope into the duodenum. The pancreatico-biliary juice was collected after positioning the endoscope distal to the ampulla of Vater. An ERCP catheter was placed into the channel of endoscope and the fluid was collected by moving the tip into the outcoming fluid and suctioning it into a syringe. The pancreas was then stimulated with secretin 2 IU/kg BW (Ferring Laboratories, Inc. Suffern, NY, USA) given intravenously within a minute. Three additional specimens were collected after the secretin injection within a 10-minute period. Blood samples were collected prior to and 10 minutes after secretin stimulation. In a subgroup of children, the effect of duodenal acidification was determined by measurement of blood secretin levels before and 4–5 minutes after washing the second part of the duodenum with 0.05M hydrochloric acid for 5 minutes. At the end of the procedure, biopsies were obtained of the small intestine, esophagus and stomach.
The volume of secreted fluid was calculated as ml/min and the aspirated juice analyzed for pH, protein (mg/ml; Bio-Rad protein assay), and for enzymes (amylase, trypsin, lipase, chymotrypsin, and carboxypeptidase A and B). These enzyme assays were modified by us and run regularly in our certified Clinical Laboratory. An aliquot of collected fluid was sent for bacterial and fungal culture. Intestinal biopsy specimens were homogenized in ice-cold distilled water and the activities of lactase, maltase, sucrase, palatinase and glucoamylase were measured using the Dahlquist intestinal disaccharidases assay [Dahlquist, Anal. Biochem. 22:99–107 (1968); Azad M, Pediatr Res, 1990;28: 166–170 (1990)]. The normal values were established based on measurements of histological normal intestinal biopsy tissues (n=104) at the University of Maryland. In our practice, digestive enzyme activities below the established 3d percentile values are considered abnormal.

Q: What does the source list for secretin?
A: average stimulatory response for secretin ([1]; children 3–7 years of age, own data, same endoscopic collection technique): 1 to 2 mL/min; typical pancreatic juice output ([1]; children without behavioral abnormalities, ages 1 to 6): 1 to 2 mL/min; defecation [2]: significantly increased; novel-object approaches [2]: decreased; stereotypic behavior [2]: no significant effects; circadian rise of LH secretion [3]: strikingly effective in increasing; latest behavioral evaluation (diagnosis) ([4]; Case 1): changed from a low functioning autistic child to a social, non-autistic, speech delayed child; also recorded: changed from a low functioning autistic child to a social, non-autistic, speech-delayed child; changes in autistic behavior ([4]; Case 1, after first secretin dose): dramatic improvement in eye contact, alertness, expressive language and fine motor skills; also recorded: improvements in eye contact, alertness, expressive language, and fine motor skills; language and cognitive functions ([4]; Case 1, second single secretin infusion eight months later): further improvement in their language and cognitive functions; cognitive skills ([4]; Case 2, five weeks following a single dosage): progressive improvement in cognitive skills; also recorded: improved over a five weeks period; social behavior and language ([4]; Case 2, second dose 3 months later): further improvement in their social behavior and language; language and communication skills ([4]; Case 3, second infusion 3 months later): accelerated their improvement; language, social, and communication skills ([4]; Case 3, three weeks and two months after the procedure): significant improvements in language, social, and communication skills; also recorded: improved significantly; Progress after Secretin administration: eye contact ([4]; Case #1, within two months, % of the time, before: Minimal eye contact): Eye contact 75% of the time; Progress after Secretin administration: bowel movements ([4]; Case #1, within two months, before: Abnormal bowel movements): Normal bowel movements; Progress after Secretin administration: sleeping ([4]; Case #1, within two months, before: Consistent sleeping problems): Has slept through almost every night entirely; Progress after Secretin administration: potty training ([4]; Case #1, within two months, before: Diapers only): Completely potty trained; Progress after Secretin administration: imitating commands ([4]; Case #1, within two months, before: Did not imitate commands): Will imitate almost any multi-step command; Progress after Secretin administration: water consumption ([4]; Case #1, within two months, before: Excessive water consumption): Excessive water consumption - no change; Progress after Secretin administration: spinning episodes ([4]; Case #1, within two months, before: Infrequent (1–2 times/week)): No spinning episodes; Progress after Secretin administration: diet preferences ([4]; Case #1, within two months, before: Limited diet preferences): No change; Progress after Secretin administration: connections between language and objects ([4]; Case #1, within two months, before: No apparent connections): Many connections made between new language learned and objects. Recites; Progress after Secretin administration: flash cards ([4]; Case #1, within two months, before: No flash cards): 40–50 Flash cards; Progress after Secretin administration: focus on requested tasks ([4]; Case #1, within two months, before: No focus on requested tasks): Will sit and watch carefully. Will perform most tasks after watching once or; Progress after Secretin administration: interest in drawing ([4]; Case #1, within two months, before: No interest in drawing): Wants to draw constantly. Will draw complete face and name the parts as he; Progress after Secretin administration: response to request for gestures ([4]; Case #1, within two months, before: No response): Responds to all kinds of requests and spontaneously says these things themself.; Progress after Secretin administration: sentences ([4]; Case #1, within two months, before: No sentences): Short sentences, such as “I love you”, “I want juice”, “Good night mammy”; Progress after Secretin administration: words ([4]; Case #1, within two months, before: Two words): 100's of words - will repeat some aproximation at any word requested; Progress after Secretin administration: videos ([4]; Case #1, within two months, before: Watch videos): Now gets “involved” interactively with their videos. They will imitate the hand; autistic symptoms and cognitive, language, and social skills, share of responders ([4]; all children who received secretin): more than half of the children; Changes after Secretin: Activity level ([4]; case #2, time 1 week): Very energetic but has very good focus during; Changes after Secretin: Appetite ([4]; case #2, time 1 week): Eating more foods: 2–3 large meals per day:; Changes after Secretin: Movements ([4]; case #2, time 1 week): A decrease in most abnormal movements but; Changes after Secretin: Social interaction ([4]; case #2, time 1 week): Hugging therapists; better eye contact,; Changes after Secretin: Correct responses to drills ([4]; case #2, time 1 week, before: 50% correct responses): 75–80% correct responses; Changes after Secretin: Bowel movements ([4]; case #2, time 2–3 days): At first constipated for 2–3 days. then normal; Changes after Secretin: Receptive language, commands understood ([4]; case #2, time 3 weeks, before: 20–30% of commands): understands where they are going: understands 75%; Changes after Secretin: Fine motor ([4]; case #2, time 4 weeks): Putting together Legos: turns key in door; turns; Changes after Secretin: Gross motor ([4]; case #2, time 4 weeks): Starts to hang on monkey bars: goes down fire; Changes after Secretin: Sleep ([4]; case #2, time 1 day, before: 7–8 hours): 10–12 hours per night uninterrupted every night; Changes after Secretin: Alertness, concentration ([4]; case #2, time 2 days): Extremely alert: looking therapist directly in; Changes: Activity level ([4]; case #3): Less hyperactive. More settled. More attentive and; Changes: Alertness, concentration ([4]; case #3): Chewing clothing, hands, and licking have stopped.; Changes: Appetite ([4]; case #3): Normal diet seems to satisfy them more. No longer; Changes: Cognitive ([4]; case #3): Actions are more purposeful. Playing sequencing,; Changes: Eye contact ([4]; case #3): More eye contact. Seeks out attention and once; Changes: Fine motor skills ([4]; case #3): Now uses fork and spoon much more readily and; Changes: Sleep ([4]; case #3): Now goes to bed willing and happily. Takes great; Changes: Social interaction ([4]; case #3): Now has a friend at school. They participate actively in; Changes: Correct responses to drills/commands ([4]; case #3, before: 50% correct responses): Rarely guessing. Very tuned in. Perhaps 80% correct; Changes: Bowel movements ([4]; case #3, before: Loose stools or diarrhea): Normal bowel movement since week three; Changes: Receptive language ([4]; case #3, before: understood 50% of commands): Understands almost everything. Understands two-step; increase in the scores on the Vineland Scale of Adaptive Behavior ([4]; case three, immediately after secretin administration): 22%; delayed reaction reported by the parents ([4]; case three, one-to-two months later): improved eye contact, increased focus on tasks, as well as improvements in language; language skills ([4]; case two, after the secretin injection): significant improvement in language skills; Vineland Scale of Adaptive Behaviors ([4]; child SG): increase in all five areas tested; increase in the CSBS ([4]; child SG): 25%; increases in language skills ([4]; child SG): six-to-nine month; increase in language skills measured by the PSLS (equivalent in development) ([4]; child WB): five months to one year; increase on the Bayley Scale of Development ([4]; child WB): 11 point; increase on the CSBS scale ([4]; child WB, within four months): 37%; autistic symptoms ([4]; each of the three cases): produced relief from autistic symptoms; cognitive, social, language, and age appropriate skills ([4]; first seven subjects, parental report and non-protocol evaluations): dramatic changes in cognitive, social, language, and age appropriate skills were reported for four of the first seven subjects; decrease of activity level measured by actometers ([4]; subject one): 50%; increase on the BOS ([4]; subject one): 22%; chronic diarrhea ([5]; Case 1, within three weeks after the procedure): their chronic diarrhea resolved; also recorded: His chronic diarrhea resolved; chronic diarrhea ([5]; Case 3): His chronic diarrhea resolved; duration of stool improvement ([5]; seven children with chronic loose stools): In five children this improvement was permanent; consistency of stools ([5]; seven children with chronic loose stools, after endoscopy and secretin injection): all of them had an improvement in the consistency of stools; pancreatic secretory response ([6]; Case 1, after 2 IU/kg BW of secretin): 10 mL/min; secretory response after secretin administration ([6]; Case 2, 2 IU/kg body weight of secretin): 7.5 mL/min; pancreato-biliary response to secretin, output ([6]; Case 3): 8 mL/min; Pancreatic secretion ([6]; Group I (chronic loose stools/diarrhea)): Increased (>5 ml/min); Pancreatic secretion ([6]; Group II (no diarrhea)): Normal (<4 ml/min); pancreato-biliary secretory response compared to non-autistic patients ([6]; all children, after secretin injection): extensive pancreato-biliary secretory response; highest rate of secretion ([6]; in one child): 10 mL/min; pancreatico-biliary secretion rates ([6]; six out of 7 autistic patients who had chronic loose stools): above 5 ml/min
